Results on 17 compounds are retold here after patent US20240409542A1, “NOVEL COMPOUNDS” (Sitryx Therapeutics Limited, priority 2021, published 2024).

A short description of data set [1]: Kinetic aqueous solubility. The note with it: kinetic from dmso stock, Kinetic solubility (Ksol), (μg/ml), PBS pH 7.4, 200 μM (2% DMSO), RT.
Method: Phosphate buffered saline (PBS) pH 7.4 was prepared using PBS tablets as per the manufacturer's instructions. Compounds and marker stocks are prepared at 10 mM in DMSO.
Compounds were incubated at 200 μM (2% DMSO) in Millipore—MSS LB PC 10 or Porvair—ref: 36004 plates in the presence of the prepared PBS pH 7.4 solution for 1.5 h, at RT, with gentle shaking. […] The samples were then analysed in a 96 well UV Star analysis plate on a plate reader from 220 nm to 500 nm at 10 nm increments.
The concentration of the samples was calculated against the standard curves.
The target in a further data set is recombinant human PKM2 (Homo sapiens (Human), UniProt P14618). The data set is described as follows: Human PKM2 activation assay (Kinase-Glo Plus luminescence). Format: biochemical. Conditions: for EC50: activation of recombinant human PKM2, 4-parameter logistic fit, read-out: hPKM2 EC50; for Emax: read-out: hPKM2 Emax (%). On the procedure:
Compound activation of recombinant human PKM2 pyruvate kinase activity was determined by biochemical assay. N-terminal His-tagged hPKM2 was sourced from R&D Systems and its substrates phosphoenolpyruvate (PEP) and ADP from Sigma-Aldrich and 2BScientific Ltd, respectively. The Kinase-Glo® Plus luminescence assay was from Promega. All other reagents were from Sigma-Aldrich. Test Compounds were prepared as 10 mM DMSO stocks and dilution series prepared in DMSO for direct dilution into Assay Buffer comprising 50 mM imidazole, 50 mM KCl, 7 mM MgCl2, 0.01% Tween20, 0.05% BSA (pH 7.2).
Human PKM2 was diluted into Assay Buffer comprising 50 mM imidazole, 50 mM KCl, 7 mM MgCl2, 0.01% Tween20, 0.05% BSA (pH 7.2) to a final concentration of 5 pM. Enzyme-Assay Buffer mix was dispensed into a 384-well shallow-well white-walled plate (PerkinElmer) and Test Compounds added by acoustic dispense (Echo®, Labcyte Inc.).
After 60 minutes' incubation on an orbital shaker (300 rpm, 26° C.), enzyme activity was quantified by the luminescent detection of generated ATP. Kinase-Glo® Plus reagent was added to each well and the plates incubated for a further 15 minutes on an orbital shaker in the dark (300 rpm, 26° C.) before luminescence measurement on a plate reader (PHERAstar® FSX, BMG Labtech).
EC50 and Emax values were determined from 4-parameter logistic fits of compound concentration-response curves.

Setting [2] is: phosphate buffered saline (PBS) pH 7.4, pH 7.4, aqueous buffer.

In brackets after ≈: the same amount, converted by molar mass.

recombinant human PKM2, sequence (P14618 whole entry): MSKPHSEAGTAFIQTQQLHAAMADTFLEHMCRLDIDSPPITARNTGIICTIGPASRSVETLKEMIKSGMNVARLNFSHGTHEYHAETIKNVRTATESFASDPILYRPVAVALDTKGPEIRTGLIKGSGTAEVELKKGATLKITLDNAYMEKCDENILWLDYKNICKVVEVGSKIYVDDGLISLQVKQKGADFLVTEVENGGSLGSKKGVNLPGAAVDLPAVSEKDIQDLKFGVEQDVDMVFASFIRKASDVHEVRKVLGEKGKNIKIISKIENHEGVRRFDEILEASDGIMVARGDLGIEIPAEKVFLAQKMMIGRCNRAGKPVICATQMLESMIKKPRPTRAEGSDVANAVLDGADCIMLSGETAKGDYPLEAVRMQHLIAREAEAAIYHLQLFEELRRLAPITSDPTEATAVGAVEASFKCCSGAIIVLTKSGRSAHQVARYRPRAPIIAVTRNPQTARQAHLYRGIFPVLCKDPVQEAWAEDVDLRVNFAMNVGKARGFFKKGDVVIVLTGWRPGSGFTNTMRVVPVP

Regarding `Cn1c2c(c3cnn(Cc4cccc(N5CCCC5)n4)c(=O)c31)CCN(S(C)(=O)=O)C2` [Example 19, 5-methyl-7-(methylsulfonyl)-3-((6-(pyrrolidin-1-yl)pyridin-2-yl)methyl)-3,5,6,7,8,9-hexahydro-4H-pyrido[4′,3′:4,5]pyrrolo[2,3-d]pyridazin-4-one], the kinetic solubility at 1.5 h in data set [1] (setting [2]) came out at 5.42 µg/mL (≈ 12.2 µM). At recombinant human PKM2, the EC50 was found to be 869 nM and the Emax is 63.8%.

With `Cn1c2c(c3cnn(Cc4n[nH]c5ccccc45)c(=O)c31)CCN(S(C)(=O)=O)C2` [Example 20, 3-((1H-indazol-3-yl)methyl)-5-methyl-7-(methylsulfonyl)-3,5,6,7,8,9-hexahydro-4H-pyrido[4′,3′:4,5]pyrrolo[2,3-d]pyridazin-4-one], the kinetic solubility at 1.5 h in data set [1] (setting [2]) turned out to be 8.43 µg/mL (≈ 20.4 µM). At recombinant human PKM2, the EC50 was 272 nM and the Emax worked out at 111%.

Regarding `COc1ccc(S(=O)(=O)N2CCc3c(n(C)c4c(=O)n(Cc5c[nH]c6cnccc56)ncc34)C2)cc1` [Example 35, 3-((1H-pyrrolo[2,3-c]pyridin-3-yl)methyl)-7-((4-methoxyphenyl)sulfonyl)-5-methyl-3,5,6,7,8,9-hexahydro-4H-pyrido[4′,3′:4,5]pyrrolo[2,3-d]pyridazin-4-one], at recombinant human PKM2, the EC50 came out at 569 nM and the Emax is 78.1%.

For the compound `COc1ccc(S(=O)(=O)N2CCc3c(n(C)c4c(=O)n(Cc5ccc6c(c5)CCO6)ncc34)C2)cc1` [Example 23, 3-((2,3-dihydrobenzofuran-5-yl)methyl)-7-((4-methoxyphenyl)sulfonyl)-5-methyl-3,5,6,7,8,9-hexahydro-4H-pyrido[4′,3′:4,5]pyrrolo[2,3-d]pyridazin-4-one], on recombinant human PKM2, the EC50 came to 313 nM and the Emax came to 58.3%.

In data set [1] (setting [2]), `Cn1c2cc([S+](C)[O-])sc2c2cnn(Cc3cccc(N)c3)c(=O)c21` (centres unmarked) [TEPP-46, reference compound] came in with a solubility (kinetic) at 1.5 h of 0.15 µg/mL (≈ 0.403 µM). On recombinant human PKM2, the Emax amounted to 113%.

As for `Cn1c2c(c3cnn(Cc4c[nH]c5cc(F)ccc45)c(=O)c31)CCN(S(C)(=O)=O)C2` [Example 39, 3-((6-fluoro-1H-indol-3-yl)methyl)-5-methyl-7-(methylsulfonyl)-6,7,8,9-tetrahydro-3H-pyrido[4′,3′:4,5]pyrrolo[2,3-d]pyridazin-4(5H)-one], in data set [1] (setting [2]), the kinetic solubility at 1.5 h turned out to be 1.09 µg/mL (≈ 2.54 µM). Besides, at recombinant human PKM2, the EC50 worked out at 217 nM and the maximal effect (Emax) was 92.7%.

Compound `Cn1c2c(c3cnn(Cc4coc5ccccc45)c(=O)c31)CCN(S(C)(=O)=O)C2` [Example 16, 3-(benzofuran-3-ylmethyl)-5-methyl-7-(methylsulfonyl)-3,5,6,7,8,9-hexahydro-4H-pyrido[4′,3′:4,5]pyrrolo[2,3-d]pyridazin-4-one] returned a solubility (kinetic) at 1.5 h in data set [1] (setting [2]) of 7.58 µg/mL (≈ 18.4 µM). Also, at recombinant human PKM2, the EC50 amounted to 129 nM and the maximal response (Emax) was 76.6%.

As to `Cn1c2c(c3cnn(Cc4ccc5cc[nH]c5n4)c(=O)c31)CCN(S(C)(=O)=O)C2` [Example 25, 3-((1H-pyrrolo[2,3-b]pyridin-6-yl)methyl)-5-methyl-7-(methylsulfonyl)-3,5,6,7,8,9-hexahydro-4H-pyrido[4′,3′:4,5]pyrrolo[2,3-d]pyridazin-4-one], in data set [1] (setting [2]), the solubility (kinetic) at 1.5 h stood at 3.94 µg/mL (≈ 9.55 µM). Further, at recombinant human PKM2, the EC50 turned out to be 342 nM and the Emax is 99.5%.

Regarding `Cn1c2c(c3cnn(Cc4c[nH]c5ccc(F)cc45)c(=O)c31)CCN(S(C)(=O)=O)C2` [Example 38, 3-((5-fluoro-1H-indol-3-yl)methyl)-5-methyl-7-(methylsulfonyl)-6,7,8,9-tetrahydro-3H-pyrido[4′,3′:4,5]pyrrolo[2,3-d]pyridazin-4(5H)-one], at recombinant human PKM2, the EC50 came to 759 nM and the Emax was 93.2%.

In data set [1] (phosphate buffered saline, pH 7.4, aqueous buffer), `COCCS(=O)(=O)N1CCc2c(n(C)c3c(=O)n(Cc4c[nH]c5cnccc45)ncc23)C1` [Example 29, 3-((1H-pyrrolo[2,3-c]pyridin-3-yl)methyl)-7-((2-methoxyethyl)sulfonyl)-5-methyl-6,7,8,9-tetrahydro-3H-pyrido[4′,3′:4,5]pyrrolo[2,3-d]pyridazin-4(5H)-one] showed a solubility (kinetic) at 1.5 h of 37.5 µg/mL (≈ 82 µM). In addition, at recombinant human PKM2, the EC50 came to 280 nM and the Emax is 89%.

With `COCCS(=O)(=O)N1CCc2c(n(C)c3c(=O)n(Cc4ccc(OC)nc4)ncc23)C1` [Example 27, 7-((2-methoxyethyl)sulfonyl)-3-((6-methoxypyridin-3-yl)methyl)-5-methyl-3,5,6,7,8,9-hexahydro-4H-pyrido[4′,3′:4,5]pyrrolo[2,3-d]pyridazin-4-one], on recombinant human PKM2, the 50% effective concentration (EC50) was determined as 919 nM and the Emax amounted to 78%.

The compound `C[C@H](N)c1cccc(Cn2ncc3c4c(n(C)c3c2=O)CN(S(C)(=O)=O)CC4)c1` [Example 26, (S)-3-(3-(1-aminoethyl)benzyl)-5-methyl-7-(methylsulfonyl)-3,5,6,7,8,9-hexahydro-4H-pyrido[4′,3′:4,5]pyrrolo[2,3-d]pyridazin-4-one] displayed a solubility (kinetic) at 1.5 h in data set [1] (setting [2]) above 83 µg/mL. Moreover, at recombinant human PKM2, the EC50 worked out at 372 nM and the Emax is 81.1%.

`Cn1c2c(c3cnn(Cc4cccc(S(C)(=O)=O)c4)c(=O)c31)CCN(S(C)(=O)=O)C2` [Example 31, 5-methyl-7-(methylsulfonyl)-3-(3-(methylsulfonyl)benzyl)-3,5,6,7,8,9-hexahydro-4H-pyrido[4′,3′:4,5]pyrrolo[2,3-d]pyridazin-4-one] came in with a kinetic solubility at 1.5 h in data set [1] (setting [2]) of 18.8 µg/mL (≈ 41.8 µM). At recombinant human PKM2, the EC50 amounted to 423 nM and the Emax came to 75.3%.

For the compound `Cn1c2c(c3cnn(Cc4c[nH]c5ncccc45)c(=O)c31)CCN(S(C)(=O)=O)C2` [Example 37, 3-((1H-pyrrolo[2,3-b]pyridin-3-yl)methyl)-5-methyl-7-(methylsulfonyl)-3,5,6,7,8,9-hexahydro-4H-pyrido[4′,3′:4,5]pyrrolo[2,3-d]pyridazin-4-one], the solubility (kinetic) at 1.5 h in data set [1] (setting [2]) was 59.3 µg/mL (≈ 144 µM). Further, at recombinant human PKM2, the half-maximal effective concentration (EC50) came out at 207 nM and the Emax came out at 106%.

`COCCNS(=O)(=O)N1CCc2c(n(C)c3c(=O)n(Cc4ccc(OC)nc4)ncc23)C1` [Example 28, N-(2-methoxyethyl)-3-((6-methoxypyridin-3-yl)methyl)-5-methyl-4-oxo-3,4,5,6,8,9-hexahydro-7H-pyrido[4′,3′:4,5]pyrrolo[2,3-d]pyridazine-7-sulfonamide]: in data set [1] (setting [2]), the solubility (kinetic) at 1.5 h is above 92.5 µg/mL. Also, on recombinant human PKM2, the EC50 was 385 nM and the Emax came out at 56.4%.

Take `Cn1c2c(c3cnn(Cc4ccc5c(c4)CC(C)(C)O5)c(=O)c31)CCN(S(C)(=O)=O)C2` [Example 24, 3-((2,2-dimethyl-2,3-dihydrobenzofuran-5-yl)methyl)-5-methyl-7-(methylsulfonyl)-3,5,6,7,8,9-hexahydro-4H-pyrido[4′,3′:4,5]pyrrolo[2,3-d]pyridazin-4-one]: at recombinant human PKM2, the half-maximal effective concentration (EC50) came out at 188 nM and the Emax was 90.9%.

The compound `Cn1c2c(c3cnn(Cc4cccc(C(C)(C)O)c4)c(=O)c31)CCN(S(C)(=O)=O)C2` [Example 33, 3-(3-(2-hydroxypropan-2-yl)benzyl)-5-methyl-7-(methylsulfonyl)-3,5,6,7,8,9-hexahydro-4H-pyrido[4′,3′:4,5]pyrrolo[2,3-d]pyridazin-4-one] registered a kinetic solubility at 1.5 h in data set [1] (setting [2]) of 19.8 µg/mL (≈ 46 µM). The Emax on recombinant human PKM2 stood at 96.5%.

One may read the solubility (kinetic) as the concentration staying in solution when a stock, usually in DMSO, is diluted into the medium. As usually defined, the EC50 is the concentration giving half of the maximal effect. Broadly, the Emax is the greatest response seen or fitted, relative to the assay's reference.
